Experimental data published in ChEMBL document CHEMBL1145856, “Synthesis and in vitro characterization of 1-(4-aminofurazan-3-yl)-5-dialkylaminomethyl-1H-[1,2,3]triazole-4-carboxylic acid derivatives. A new class of selective GSK-3 inhibitors” (J Med Chem, 2003).

Tests used:
[1] = molecular target: T1, Glycogen synthase kinase-3 beta (Homo sapiens, UniProt P49841); assay: Inhibition of human Glycogen synthase kinase-3 beta (GSK3-beta) at 100 uM ATP
[2] = molecular target: T1, Glycogen synthase kinase-3 beta
Description: Inhibitory activity against human glycogen synthase kinase-3beta (GSK3-beta) at 100 uM ATP

[3] = molecular target: T1, Glycogen synthase kinase-3 beta; format: functional, cell-based, Cricetulus griseus, CHO-hIR
[4] = molecular target: Cyclin-dependent kinase 2/cyclin A (Homo sapiens, UniProt P24941); assay: Inhibition of Cyclin-dependent kinase 2-cyclin A; format: protein-complex assay
[5] = molecular target: T1, Glycogen synthase kinase-3 beta; format: functional, cell-based, Cricetulus griseus, CHO
Description: Stimulation of glycogen synthase in CHO cells expressing human insulin receptor

T1 sequence (P49841 whole entry): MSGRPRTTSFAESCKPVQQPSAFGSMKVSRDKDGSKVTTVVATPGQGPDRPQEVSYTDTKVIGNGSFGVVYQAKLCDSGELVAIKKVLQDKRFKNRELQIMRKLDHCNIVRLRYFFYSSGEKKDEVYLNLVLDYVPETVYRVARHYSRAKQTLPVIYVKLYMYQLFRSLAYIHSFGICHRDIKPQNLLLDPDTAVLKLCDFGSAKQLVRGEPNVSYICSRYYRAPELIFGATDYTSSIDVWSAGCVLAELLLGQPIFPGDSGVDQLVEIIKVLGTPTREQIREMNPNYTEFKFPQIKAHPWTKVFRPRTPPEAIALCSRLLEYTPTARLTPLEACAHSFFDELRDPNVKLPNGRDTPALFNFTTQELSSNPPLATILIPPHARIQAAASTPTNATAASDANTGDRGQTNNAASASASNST

| IC50 [2] [µM] | Compound | other results |
| --- | --- | --- |
|  | CCN(CC)Cc1c(C(=O)NN)nnn1-c1nonc1N | IC50 [1]: 17 µM |
| 9.3 | Nc1nonc1-n1nnc(C(=O)NCc2ccncc2)c1CN1CCCCC1 |  |
| 6.92 | CN(C)Cc1c(-c2n[nH]c(-c3ccncc3)n2)nnn1-c1nonc1N |  |
| 2.1 | Nc1nonc1-n1nnc(C(=O)NCCc2ccncc2)c1CN1CCCC1 |  |
| 1.16 | Nc1nonc1-n1nnc(C(=O)NCCc2ccncc2)c1CN1CCCCC1 | EC50 [3]: 57.5 µM; IC50 [4]: 119 µM; EC50 [5]: 19.1 µM |
| 0.1 | Nc1nonc1-n1nnc(C(=O)N/N=C/c2ccncc2)c1CN1CCCC1 |  |
| > 250 | CN(CCc1ccncc1)C(=O)c1nnn(-c2nonc2N)c1CN1CCCCC1 |  |
| > 250 | CC(C)CNCc1c(C(=O)NCc2ccncc2)nnn1-c1nonc1N |  |
| 9.6 | NNC(=O)c1nnn(-c2nonc2N)c1CN1CCCCC1 |  |
| 0.41 | CCN(CC)Cc1c(C(=O)N/N=C/c2ccncc2)nnn1-c1nonc1N |  |
| 11.7 | CCN(CC)Cc1c(C(=O)NCCc2ccncc2)nnn1-c1nonc1N |  |
| 0.24 | Nc1nonc1-n1nnc(-c2n[nH]c(-c3ccncc3)n2)c1CN1CCCC1 |  |
| 0.1 | Nc1nonc1-n1nnc(C(=O)N/N=C/c2ccncc2)c1CN1CCCCC1 | EC50 [3]: 4.54 µM; IC50 [4]: 96 µM; EC50 [5]: 2.85 µM |

| Compound | IC50 [2] [µM] | other results |
| --- | --- | --- |
| Nc1nonc1-n1nnc(-c2nnc(-c3ccncc3)[nH]2)c1CN1CCCCC1 | 0.28 | EC50 [3]: 11.1 µM; IC50 [4]: > 250 µM; EC50 [5]: 1.85 µM |
